Here are results for three compounds from ChEMBL document CHEMBL3994582, “A2B adenosine receptor antagonists: Design, synthesis and biological evaluation of novel xanthine derivatives” (Eur J Med Chem, 2017).

Series [1] relates to Mus musculus. Nature of the series: Antiallergic activity in Balb/c mouse model of ovalbumin-induced allergic asthma assessed as inhibition of total cell count in BALF in ovalbumin sensitized mouse at 3 mg/kg, ip bid administered 1 hr before OVA challenge for 60 mins followed by test compound treatment 5 hrs after OVA challenge on day 12 to 15 measured on day 15. In kind it is functional, organism-based.

The target of series [2] is T1, Adenosine receptor A2a (Homo sapiens, UniProt P29274). Nature of the series: Displacement of [3H]-ZM-241385 from human adenosine receptor A2a expressed in HEK293 cell membranes after 90 mins by liquid scintillation counting method.
For a further series, the target named is T2, Adenosine receptor A1 (Homo sapiens, UniProt P30542).
T2 sequence (P30542 whole entry): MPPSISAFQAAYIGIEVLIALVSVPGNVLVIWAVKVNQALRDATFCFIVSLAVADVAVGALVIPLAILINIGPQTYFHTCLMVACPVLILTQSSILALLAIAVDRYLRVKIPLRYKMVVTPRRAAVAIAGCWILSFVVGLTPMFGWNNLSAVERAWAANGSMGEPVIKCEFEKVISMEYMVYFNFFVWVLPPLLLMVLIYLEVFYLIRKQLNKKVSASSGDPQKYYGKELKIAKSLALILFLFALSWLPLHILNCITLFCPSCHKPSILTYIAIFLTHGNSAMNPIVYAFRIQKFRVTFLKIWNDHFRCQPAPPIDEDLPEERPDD
As to the kind of experiment: Displacement of [3H]DPCPX from human adenosine receptor A1 expressed in HEK293 cell membranes after 90 mins by liquid scintillation counting method.

For the next series, the system named is MDCK. Nature of the series: Cytotoxicity against MDCK cells. The settings on record: Canis lupus familiaris.
Series [3] in a line: Half life in C57BL/6J mouse at 10 mg/kg, po via gavage by LC-MS/MS analysis. In kind it is ADME, organism-based. Conditions: in vivo.
For series [4], the target named is T1, Adenosine receptor A2a. Nature of the series: Displacement of [3H]-ZM-241385 from human adenosine receptor A2a expressed in HEK293 cell membranes at 0.1 uM after 90 mins by liquid scintillation counting method relative to control. On the technique in general: In a radioligand displacement assay an active substance lowers the binding of a labelled ligand.
Series [5] is filed under the species Homo sapiens. Nature of the series: Selectivity ratio of Ki for human adenosine receptor A2a expressed in HEK293 cell membranes to Ki for human adenosine receptor A2b expressed in HEK293 cell membranes. In kind it is cell-based.
For series [6], the species on record is Homo sapiens. Nature of the series: Selectivity ratio of Ki for human adenosine receptor A1 expressed in HEK293 cell membranes to Ki for human adenosine receptor A2b expressed in HEK293 cell membranes. It is filed as cell-based.
A further series concerns HepG2. As to the kind of experiment: Cytotoxicity against human HepG2 cells.
Series [7] addresses T3, Adenosine receptor A1 (Homo sapiens) (UniProt P30542).
T3 sequence (whole entry): T2 sequence (P30542 whole entry)
As to the kind of experiment: Displacement of [3H]DPCPX from human adenosine receptor A1 expressed in HEK293 cell membranes at 0.1 uM after 90 mins by liquid scintillation counting method relative to control.

Series [8] in a line: Cmax in C57BL/6J mouse at 10 mg/kg, po via gavage by LC-MS/MS analysis. In kind it is ADME, organism-based. On the set-up: dose 10 mg/kg, route oral. The settings on record: in vivo.
In series [9] the target is T4, Adenosine receptor A2b (Homo sapiens, UniProt P29275).
T4 sequence (P29275 whole entry): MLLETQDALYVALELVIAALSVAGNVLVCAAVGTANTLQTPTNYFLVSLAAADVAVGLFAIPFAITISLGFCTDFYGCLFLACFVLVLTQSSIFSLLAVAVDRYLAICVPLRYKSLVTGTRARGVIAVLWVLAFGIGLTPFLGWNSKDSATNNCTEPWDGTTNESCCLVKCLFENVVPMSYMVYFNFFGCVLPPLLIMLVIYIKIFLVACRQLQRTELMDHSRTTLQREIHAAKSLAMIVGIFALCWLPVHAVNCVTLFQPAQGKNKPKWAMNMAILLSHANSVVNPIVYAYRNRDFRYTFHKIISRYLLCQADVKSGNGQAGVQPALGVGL
Nature of the series: Antagonist activity at human adenosine receptor A2b expressed in HEK293 cells assessed as inhibition of NECA-induced cAMP level preincubated for 15 mins followed by NECA stimulation for 15 mins by HTRF assay. In kind it is functional, cell-based.

Series [10] deals with T4, Adenosine receptor A2b. As to the kind of experiment: Displacement of [3H]-MRS-1754 from human adenosine receptor A2b expressed in HEK293 cell membranes after 90 mins by liquid scintillation counting method.
A short description of series [11]: Inhibition of CYP450 (unknown origin). It is filed as ADME, Homo sapiens.
The test system of series [12] is Liver. As to the kind of experiment: Metabolic stability in human liver microsomes assessed as metabolic rate per mg protein preincubated for 5 mins followed by NADPH addition measured up to 30 mins by LC-MS/MS analysis. Conditions: 0.5 h. In kind it is ADME, microsome. Background: Microsomes from liver hold many membrane-bound enzymes, among them those of drug oxidation.

A short description of series [13]: AUC(0 to t) in C57BL/6J mouse at 10 mg/kg, po via gavage by LC-MS/MS analysis. It is filed as ADME, organism-based. The settings on record: in vivo.
Series [14] deals with Liver. Nature of the series: Metabolic stability in mouse liver microsomes assessed as metabolic rate per mg protein preincubated for 5 mins followed by NADPH addition measured up to 30 mins by LC-MS/MS analysis. The settings on record: 0.5 h. In kind it is ADME, microsome.
The test system of series [15] is Mus musculus. As to the kind of experiment: Antiallergic activity in Balb/c mouse model of ovalbumin-induced allergic asthma assessed as inhibition of NECA-induced airway hyperresponsiveness in ovalbumin sensitized mouse at 3 mg/kg, ip bid administered 1 hr before OVA challenge for 60 mins followed by test compound treatment 5 hrs after OVA challenge on day 12 to 15 measured on day 15. In kind it is functional, organism-based.

The target of series [16] is T5, Adenosine receptor A3 (Homo sapiens) (UniProt P0DMS8).
T5 sequence (whole entry): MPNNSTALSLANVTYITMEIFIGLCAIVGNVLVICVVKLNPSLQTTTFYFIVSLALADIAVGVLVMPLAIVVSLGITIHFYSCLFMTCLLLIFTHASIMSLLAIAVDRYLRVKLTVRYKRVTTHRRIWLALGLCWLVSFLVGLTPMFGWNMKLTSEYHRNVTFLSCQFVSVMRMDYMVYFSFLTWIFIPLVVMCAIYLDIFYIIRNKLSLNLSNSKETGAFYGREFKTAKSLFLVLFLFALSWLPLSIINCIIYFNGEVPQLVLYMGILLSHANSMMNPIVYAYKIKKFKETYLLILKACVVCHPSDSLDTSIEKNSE
As to the kind of experiment: Displacement of [3H]-HEM-ADO from human adenosine receptor A3 expressed in HEK293 cell membranes at 1 uM after 90 mins by liquid scintillation counting method relative to control.

Series [17] in a line: Oral bioavailability in C57BL/6J mouse at 10 mg/kg via gavage by LC-MS/MS analysis. Conditions: in vivo. It is filed as ADME, organism-based.

Each structure is given as a SMILES string. Calls of active or inactive are those of the source.

T1 sequence (P29274 whole entry): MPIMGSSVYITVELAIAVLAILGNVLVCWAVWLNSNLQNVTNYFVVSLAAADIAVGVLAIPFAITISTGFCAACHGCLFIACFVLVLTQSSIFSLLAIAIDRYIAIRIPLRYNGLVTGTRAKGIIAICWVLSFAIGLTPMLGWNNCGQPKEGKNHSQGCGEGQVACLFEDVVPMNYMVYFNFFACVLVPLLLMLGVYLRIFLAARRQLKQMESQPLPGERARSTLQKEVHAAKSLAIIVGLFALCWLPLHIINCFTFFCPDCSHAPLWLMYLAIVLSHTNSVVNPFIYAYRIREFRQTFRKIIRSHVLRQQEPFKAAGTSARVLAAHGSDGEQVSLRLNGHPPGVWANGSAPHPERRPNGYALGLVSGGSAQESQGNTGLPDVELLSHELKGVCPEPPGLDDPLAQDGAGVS

By inhibition is commonly meant how much of the control response was suppressed. By Ki is commonly meant the dissociation constant of the complex between target and ligand, obtained from inhibition or displacement. Broadly, the IC50 is the concentration at which inhibition is half-maximal. What is called half-life is the time needed for the level to fall by half in the phase considered. A high value points to slow decline. Usually Cmax stands for the highest concentration seen after dosing. One may read the AUC(0-t) as exposure summed from dosing to a finite time, without extrapolation to infinity. A higher AUC(0-t) goes with high exposure. As a reminder, the bioavailability is dose-corrected exposure relative to a reference, in per cent. Lower therefore signals little systemic uptake. On to `CCCn1c(=O)c2[nH]c(-c3cnn(CC(=O)N4CCN(c5cccc(C(F)(F)F)c5)CC4)c3)nc2n(CCC)c1=O`, for which the inhibition entry in the series on Mus musculus [1] and in the series with Mus musculus [15] was “Active” each time. In addition, the inhibition constant Ki amounted to 57 nM on Adenosine receptor A2a [2], 177 nM at Adenosine receptor A1, 4 nM at Adenosine receptor A2b [9] and 1.5 nM at Adenosine receptor A2b [10]. Besides, the IC50 in the series with MDCK is above 100000 nM; in the series with HepG2, above 100000 nM; in series [11], above 25000 nM. Besides, the half-life in series [3] was 1.9 h. Also, the inhibition on Adenosine receptor A2a [4] worked out at 37%; in series [7] it was 32%; in series [16] it was 0%. Moreover, the Ratio Ki in the series listed under Homo sapiens [5] stood at 38; in the series listed under Homo sapiens [6], 118. In series [8], this compound gave a Cmax of 44 µM. In addition, the Drug metabolism in the series with Liver [12] was 0.16 nmol/min/mg; with Liver [14] it was 0.04 nmol/min/mg. Besides, the AUC(0-t) in series [13] was 51 µM·h. The same compound registered a bioavailability in series [17] of 65%.

As to `CCCn1c(=O)c2[nH]c(-c3cnn(CC4CC(=O)N(c5ccc(C(F)(F)F)cc5)C4)c3)nc2n(CC)c1=O` (stereo not given), the inhibition constant Ki at Adenosine receptor A2a [2] turned out to be 460 nM; at Adenosine receptor A1, 670 nM; at Adenosine receptor A2b [9] it was 8 nM; on Adenosine receptor A2b [10], 4 nM. In series [3], this compound had a half-life of 0.9 h. The inhibition turned out to be 4% on Adenosine receptor A2a [4], 6% in [7] and 4% in series [16]. Further, the Ratio Ki in the series filed under Homo sapiens [5] came to 115; in the series filed under Homo sapiens [6], 167. Further, the Cmax in [8] was 3.8 µM. Moreover, the figures for the Drug metabolism with Liver [12] and with Liver [14] were 0.08 nmol/min/mg and 0.16 nmol/min/mg, respectively. The compound further yielded an exposure AUC(0-t) in series [13] of 2.9 µM·h. The compound also gave a bioavailability in [17] of 11%.

For `CCCn1c(=O)c2[nH]c(-c3cnn(CC4CC(=O)N(c5ccc(C(F)(F)F)cc5)C4)c3)nc2n(CCC)c1=O` (stereo not given), the Ki at Adenosine receptor A2a [2] stood at 124 nM; at Adenosine receptor A1, 108 nM; on Adenosine receptor A2b [9], 0.9 nM; at Adenosine receptor A2b [10], 1 nM. Moreover, the half-life in [3] is 2.4 h. The inhibition was determined as 52% on Adenosine receptor A2a [4], 49% in series [7] and 0% in series [16]. Further, the Ratio Ki in the series listed under Homo sapiens [5] worked out at 124; in the series listed under Homo sapiens [6], 108. The peak level in series [8] (Cmax) was 16.7 µM. In addition, the Drug metabolism in the series with Liver [12] turned out to be 0.02 nmol/min/mg; in the series with Liver [14] it was 0.16 nmol/min/mg. The AUC(0-t) in [13] was found to be 21 µM·h. Further, in series [17], the bioavailability came to 27%.
